Test results: publication PMC2931804 (Clinical cancer research : an official journal of the …, 2010)

Tests used:
[1] = FU plasma pharmacokinetics; type: in vivo, human
[2] = vorinostat with FOLFOX; cited from earlier work

FU Cmax with vorinostat relative to without (times lower) ([1]; 1,700 mg vorinostat once daily, cycle 2 vs cycle 1, statistically significant): 0.82 times
Structure (SMILES): O=c1[nH]cc(F)c(=O)[nH]1 [FU, 5-fluorouracil]
Change in FU clearance with the addition of vorinostat ([1]; once-daily or twice-daily MTD): did not observe any decrease | FU clearance at higher vorinostat dose-levels [2]: lower FU clearance
